Assay results from patent US11993596B2, “Fused tri-cyclic compound as PDE3/PDE4 dual inhibitor” (CHIA TAI TIANQING PHARMACEUTICAL GROUP CO., LTD., priority 2018, dated 2024).
Each block holds one compound with its values, some of them ahead of it.

Key:
[1] = system: TNF-α in human peripheral blood mononuclear cells (hPBMCs); experiment: Inhibitory activity against TNF-α in human peripheral blood mononuclear cells; type: cell-based; settings: PBMC, TNF-α in supernatant, 1 ng/mL LPS, 24 hours, read-out: hPBMC IC50
Source text: In Vitro Detection of the Inhibitory Activity of Compounds Against TNF-α in Human Peripheral Blood Mononuclear Cells
Experimental objective: to express the anti-inflammatory activity at the cellular level of the test compound based on the level of TNF-α in human peripheral blood mononuclear cells (hPBMCs).
Procedure: • 1. Normal human whole blood was collected into an EDTA anticoagulation tube; • 2. The PBMCs were separated by Ficoll density gradient centrifugation, and then counted. The cell concentration was adjusted to 2×10^6/mL; • 3. To each well of a U-bottomed 96-well plate were added 2×10^5 cells, 1 ng/mL LPS, and DMSO solutions of compound at concentrations of 100 μM, 10 μM, 1 μM, 100 nM, 10 nM, 1 nM, 100 pM and 10 pM, 200 μL per well; • 4. The mixture was incubated for 24 hours, and then the supernatant was collected; • 5. The level of TNF-α in supernatant was detected by ELIZA, Graphpad Prism software was used to fit inhibition curves and IC50 was calculated.

CYP3A4 = CYP3A4 (Homo sapiens (Human), UniProt P08684); experiment: Inhibition of human liver microsomal cytochrome P450 isoenzyme CYP3A4; type: in vitro ADME; settings: human liver microsomes, probe substrate midazolam
Chain of CYP3A4 (P08684 whole entry): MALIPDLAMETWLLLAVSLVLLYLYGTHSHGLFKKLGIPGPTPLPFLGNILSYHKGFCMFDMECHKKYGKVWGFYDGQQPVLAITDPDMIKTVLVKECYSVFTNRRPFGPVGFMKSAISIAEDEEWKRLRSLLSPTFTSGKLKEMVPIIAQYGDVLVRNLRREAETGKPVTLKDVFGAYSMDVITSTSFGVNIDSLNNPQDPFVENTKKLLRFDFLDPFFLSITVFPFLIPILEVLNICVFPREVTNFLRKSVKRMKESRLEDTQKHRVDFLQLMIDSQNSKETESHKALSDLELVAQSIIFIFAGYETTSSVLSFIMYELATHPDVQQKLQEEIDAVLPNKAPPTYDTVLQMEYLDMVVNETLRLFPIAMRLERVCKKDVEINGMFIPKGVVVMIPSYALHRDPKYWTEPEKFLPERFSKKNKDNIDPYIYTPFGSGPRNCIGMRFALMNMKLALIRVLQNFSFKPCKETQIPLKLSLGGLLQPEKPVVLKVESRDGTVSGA
Experimental: (§1) Inhibitory Effect on the Activity of Isoenzymes (CYP1A2, CYP2C9, CYP2C19, CYP2D6 and CYP3A4) of Human Liver Microsomal Cytochrome P450
(§2) A total of 5 specific probe substrates of 5 isoenzymes of CYP, namely phenacetin (CYP1A2), diclofenac (CYP2C9), (S)-mephenytoin (CYP2C19), dextromethorphan (CYP2D6) and midazolam (CYP3A4) are each co-incubated with human liver microsomes and test compound, and then reduced nicotinamide adenine dinucleotide phosphate (NADPH) was added to initiate the reaction.

CYP1A2 = CYP1A2 (Homo sapiens (Human), UniProt P05177); experiment: biochemical; type: in vitro ADME
Chain of CYP1A2 (P05177 whole entry): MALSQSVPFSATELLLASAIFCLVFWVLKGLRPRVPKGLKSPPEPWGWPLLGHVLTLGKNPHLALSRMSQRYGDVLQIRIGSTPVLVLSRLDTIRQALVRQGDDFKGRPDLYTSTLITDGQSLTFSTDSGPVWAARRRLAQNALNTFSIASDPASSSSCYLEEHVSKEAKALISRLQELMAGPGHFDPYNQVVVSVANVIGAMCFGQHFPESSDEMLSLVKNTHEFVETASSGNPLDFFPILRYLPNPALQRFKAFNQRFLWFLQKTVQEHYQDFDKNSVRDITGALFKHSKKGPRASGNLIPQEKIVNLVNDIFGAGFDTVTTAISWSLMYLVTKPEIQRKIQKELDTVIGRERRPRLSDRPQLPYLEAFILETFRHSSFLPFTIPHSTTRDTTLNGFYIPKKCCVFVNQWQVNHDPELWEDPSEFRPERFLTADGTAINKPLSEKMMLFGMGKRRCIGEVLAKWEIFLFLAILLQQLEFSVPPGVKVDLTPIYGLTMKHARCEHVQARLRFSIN
Experimental: as §1, §2

CYP2C19 = CYP2C19 (Homo sapiens (Human), UniProt P33261); experiment: Inhibition of human liver microsomal cytochrome P450 isoenzyme CYP2C19; type: in vitro ADME; settings: human liver microsomes, probe substrate (S)-mephenytoin
Chain of CYP2C19 (P33261 whole entry): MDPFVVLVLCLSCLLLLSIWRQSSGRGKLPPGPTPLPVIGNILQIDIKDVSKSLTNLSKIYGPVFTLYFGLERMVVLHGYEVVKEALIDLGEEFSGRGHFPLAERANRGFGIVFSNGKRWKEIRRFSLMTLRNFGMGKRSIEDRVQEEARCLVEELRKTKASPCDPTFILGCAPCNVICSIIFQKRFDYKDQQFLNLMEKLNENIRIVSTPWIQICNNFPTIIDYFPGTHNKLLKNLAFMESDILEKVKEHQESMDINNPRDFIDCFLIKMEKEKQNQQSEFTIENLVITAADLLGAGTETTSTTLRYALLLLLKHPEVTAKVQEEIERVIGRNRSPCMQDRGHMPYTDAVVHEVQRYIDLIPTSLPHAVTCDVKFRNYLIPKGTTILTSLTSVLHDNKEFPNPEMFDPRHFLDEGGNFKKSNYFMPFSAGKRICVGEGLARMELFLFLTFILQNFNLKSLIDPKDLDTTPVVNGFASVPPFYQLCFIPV
Experimental: as §1, §2

CYP2D6 = CYP2D6 (Homo sapiens (Human), UniProt P10635); experiment: Inhibition of human liver microsomal cytochrome P450 isoenzyme CYP2D6; type: in vitro ADME; settings: human liver microsomes, probe substrate dextromethorphan
Chain of CYP2D6 (P10635 whole entry): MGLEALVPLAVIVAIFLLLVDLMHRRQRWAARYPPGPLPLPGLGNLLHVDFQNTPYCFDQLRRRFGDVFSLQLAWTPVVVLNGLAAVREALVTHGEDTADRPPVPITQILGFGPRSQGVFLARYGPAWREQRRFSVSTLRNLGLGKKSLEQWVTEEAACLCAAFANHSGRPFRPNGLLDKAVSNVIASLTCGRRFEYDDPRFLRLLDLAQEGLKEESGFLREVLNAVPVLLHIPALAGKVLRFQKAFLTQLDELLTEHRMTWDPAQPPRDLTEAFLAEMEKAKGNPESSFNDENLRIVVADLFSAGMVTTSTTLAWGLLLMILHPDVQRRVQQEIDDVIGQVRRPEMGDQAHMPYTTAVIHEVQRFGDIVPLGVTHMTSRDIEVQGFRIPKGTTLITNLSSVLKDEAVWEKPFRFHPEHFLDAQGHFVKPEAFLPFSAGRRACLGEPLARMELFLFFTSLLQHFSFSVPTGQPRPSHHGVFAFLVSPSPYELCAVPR
Experimental: as §1, §2

CYP2C9 = CYP2C9 (Homo sapiens (Human), UniProt P11712); experiment: Inhibition of human liver microsomal cytochrome P450 isoenzyme CYP2C9; type: in vitro ADME; settings: human liver microsomes, probe substrate diclofenac
Chain of CYP2C9 (P11712 whole entry): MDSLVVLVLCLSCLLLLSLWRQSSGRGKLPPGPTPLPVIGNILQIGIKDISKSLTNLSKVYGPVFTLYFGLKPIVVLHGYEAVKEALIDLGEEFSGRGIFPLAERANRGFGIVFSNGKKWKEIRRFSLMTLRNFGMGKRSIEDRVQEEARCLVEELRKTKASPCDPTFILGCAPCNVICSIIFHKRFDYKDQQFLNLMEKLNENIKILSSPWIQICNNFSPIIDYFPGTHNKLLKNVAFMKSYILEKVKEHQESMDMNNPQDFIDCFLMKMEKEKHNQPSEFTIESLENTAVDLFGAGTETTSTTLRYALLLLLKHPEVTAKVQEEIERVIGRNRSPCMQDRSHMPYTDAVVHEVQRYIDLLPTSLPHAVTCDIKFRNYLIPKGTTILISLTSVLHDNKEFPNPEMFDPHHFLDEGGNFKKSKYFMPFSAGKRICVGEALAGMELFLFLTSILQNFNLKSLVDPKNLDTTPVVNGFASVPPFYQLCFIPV
Experimental: as §1, §2

[2] = reported in literature; cited from earlier work
[3] = reported in literature; cited from earlier work; remark: listed apart in the source
[4] = Pharmacokinetic experiment in beagle dogs; type: in vivo; settings: male, dog, plasma
Experimental: Pharmacokinetic Experiment in Beagle Dogs
In this study, male beagle dogs were selected as test animals, and liquid chromatography-tandem mass spectrometry (LC-MS/MS) method was used for quantitatively measuring the drug concentration in plasma of beagle dogs at different time points after intravenous injection or oral administration of compound WX036 so as to evaluate the pharmacokinetic characteristics of the compound WX036 in beagle dogs.
The clear solution of compound WX036 was injected into two 10-12 kg beagle dogs via the cephalic vein or saphenous vein, and the clear solution of test compound was administered intragastrically to two 10-12 kg beagle dogs (overnight fasted). The animals were all subjected to approximately 500 μL of blood collection each time from peripheral veins at 0.0333, 0.0833, 0.25, 0.5, 1, 2, 4, 6, 8, and 24 hours post-dose, and the blood was transferred into commercial centrifuge tubes containing 0.85-1.15 mg of K2 EDTA*2H2O anticoagulant, and plasma was taken by centrifugation at 3000 g for 10 minutes at 4° C. The plasma concentration was measured by LC-MS/MS method, and the relevant pharmacokinetic parameters were calculated by WinNonlin™ Version 6.3 (Pharsight, Mountain View, CA) pharmacokinetic software using non-compartmental model linear logarithmic trapezoid method.

[5] = intravenous injection 0.5 mg/kg

Compound: CCOc1cc2c(cc1OC)-c1c/c(=N\c3c(C)cc(C)cc3C)n(CCNC(=O)c3cnn[nH]3)c(=O)n1CC2 [WX016]
IC50 [1]: 2800 pM

Compound: CCOc1cc2c(cc1OC)-c1c/c(=N\c3c(C)cc(C)cc3C)n(CCNC(=O)c3nnc[nH]3)c(=O)n1CC2 [WX015]
IC50 [1]: 360 pM

Compound: COc1cc2c(cc1OC)-c1c/c(=N\c3c(C)cc(C)cc3C)n(CCNC(N)=O)c(=O)n1CC2 [RPL554]
solubility [2]: poor
plasma clearance [3]: high

Compound: CCOc1cc2c(cc1OC)-c1c/c(=N\c3c(C)cc(C)cc3C)n(CCNc3nc[nH]n3)c(=O)n1CC2 [WX003]
IC50 [1]: 3100 pM

Compound: CCOc1cc2c(cc1OC)-c1c/c(=N\c3c(C)cc(C)cc3C)n(CCNc3nc[nH]n3)c(=O)n1CCC2 [WX004]
IC50 [1]: 330 pM

Compound: COc1cc2c(cc1OC)-c1cc(Oc3c(C(C)C)cccc3C(C)C)nc(=O)n1CC2 [RPL565]
solubility [2]: poor
plasma clearance [3]: high

Results, then the compound that gave them:

IC50 (CYP3A4): 16 µM
IC50 (CYP1A2): 50 µM
IC50 (CYP2C19): 50 µM
IC50 (CYP2D6): 50 µM
IC50 (CYP2C9): 20 µM
Compound: CCOc1cc2c(cc1OC)-c1c/c(=N\c3c(C)cc(C)cc3C)n(CCNC(=O)c3[nH]nnc3OC)c(=O)n1CC2 [WX026]

IC50 [1]: 250 pM
Compound: CCOc1cc2c(cc1OC)-c1c/c(=N\c3c(C)cc(C)cc3C)n(CCNC(=O)c3nnc[nH]3)c(=O)n1CCC2 [WX047]

IC50 [1]: 1800 pM
Compound: CCOc1cc2c(cc1OC)-c1c/c(=N\c3c(C)cc(C)cc3C)n(CCC(=O)Nc3nnc[nH]3)c(=O)n1CC2 [WX054]

IC50 (CYP3A4): 50 µM
clearance [4, 5]: 70.3 mL/min/kg
half-life [4, 5]: 18 min
bioavailability ([4]; oral administration 3 mg/kg): 7.5%
IC50 (CYP1A2): 50 µM
IC50 (CYP2C19): 50 µM
IC50 (CYP2D6): 50 µM
Compound: CCOc1cc2c(cc1OC)-c1c/c(=N\c3c(C)cc(C)cc3C)n(CCNC(=O)c3c(O)nnn3C)c(=O)n1CC2 [WX036]

IC50 [1]: 90 pM
Compound: CCOc1cc2c(cc1OC)-c1c/c(=N\c3c(C)cc(C)cc3C)n(CCNC(=O)c3ccn[nH]3)c(=O)n1CC2 [WX018]
